Source: PubChem BioAssay (NCI)
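48-hour exposure; five concentrations; linearly interpolated endpoints. GI50 is the concentration that inhibits growth by half. TGI: concentration producing complete growth inhibition.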

What was measured:
Assay in all cases: NCI anticancer screen, dose series, 48 h
HL-60(TB) leukemia = system: HL-60(TB) leukemia
IGROV1 ovarian = system: IGROV1 ovarian
SK-MEL-28 melanoma = system: SK-MEL-28 melanoma
SW-620 colon = system: SW-620 colon
OVCAR-5 ovarian = system: OVCAR-5 ovarian
UACC-257 melanoma = system: UACC-257 melanoma
SNB-75 CNS = system: SNB-75 CNS
KM12 colon = system: KM12 colon
HCT-15 colon = system: HCT-15 colon
MDA-MB-231 breast = system: MDA-MB-231 breast

| SMILES | TGI (HL-60(TB) leukemia) | TGI (IGROV1 ovarian) | TGI (SK-MEL-28 melanoma) | TGI (SW-620 colon) | TGI (OVCAR-5 ovarian) | TGI (UACC-257 melanoma) | TGI (SNB-75 CNS) | TGI (KM12 colon) | TGI (HCT-15 colon) | TGI (MDA-MB-231 breast) | GI50 (OVCAR-5 ovarian) |
| --- | --- | --- | --- | --- | --- | --- | --- | --- | --- | --- | --- |
| CC1CCCc2c(-c3ccc(Cl)cc3)nc(N)c(C#N)c21 (stereo not drawn) | > 100 µM | 66.1 µM | > 100 µM | > 100 µM | > 100 µM | 61.5 µM | 50.6 µM | 56.7 µM | > 100 µM | > 100 µM | – |
| COc1c(O)cc(/C=C/c2cc(O)cc3c2[C@@]2(C(=O)O3)c3c(O)cc(O)cc3OC2c2cccc(O)c2)cc1O (stereo partly drawn) | 69.1 µM | > 100 µM | > 100 µM | > 100 µM | – | > 100 µM | – | > 100 µM | > 100 µM | > 100 µM | – |
| Cc1ccc(-c2c(C#N)c(-c3ccc(N(C)C)cc3)c(C#N)c(=O)n2NS(=O)(=O)c2ccccc2)cc1 | > 100 µM | > 100 µM | > 100 µM | > 100 µM | > 100 µM | > 100 µM | > 100 µM | > 100 µM | > 100 µM | > 100 µM | – |
| COc1ccc(CSCc2cc(OC)c(OC)c(OC)c2)cc1 | > 100 µM | > 100 µM | > 100 µM | > 100 µM | > 100 µM | > 31.6 µM | > 100 µM | > 100 µM | > 100 µM | > 100 µM | – |
| Fc1ccc(C(OCCN2CCC3CCC(C2)N3CCCc2ccccc2)c2ccc(F)cc2)cc1 (stereo not drawn) | 5.21 µM | 17.7 µM | 6.53 µM | 19.9 µM | 20.3 µM | 8.93 µM | 10.3 µM | 11.3 µM | 14.5 µM | 13.6 µM | – |
| CCC(=O)N(c1ccccc1)C(C)CN1CCC(O)(c2ccccc2)CC1 (stereo not drawn) | > 100 µM | > 100 µM | > 100 µM | – | > 100 µM | > 100 µM | > 100 µM | – | > 100 µM | > 100 µM | – |
| O=C(Nc1ccccc1)N1CCNC1=S | > 100 µM | > 100 µM | > 100 µM | > 100 µM | > 100 µM | – | > 100 µM | > 100 µM | > 100 µM | > 100 µM | – |
| Cn1c(=O)nc2n(CCO)c(-c3ccccc3)c(-c3ccccc3)nc-2c1=O | – | > 100 µM | > 100 µM | > 100 µM | > 100 µM | > 100 µM | > 100 µM | > 100 µM | > 100 µM | > 100 µM | – |
| NN/C(=N\S(=O)(=O)c1cc(Cl)c(Oc2ccc([N+](=O)[O-])cc2Cl)c(Cl)c1)Nc1ccc(Cl)cc1 | – | 42.3 µM | 48.3 µM | > 100 µM | 55 µM | 34.6 µM | 56.3 µM | 42.1 µM | 41.7 µM | 39.9 µM | – |
| COC(=O)/C=C/c1cc(OC)c2c(c1)C(C(=O)OC)C(c1ccc(OC)c(OC)c1)O2 (stereo not drawn) | > 100 µM | > 100 µM | > 100 µM | > 100 µM | > 100 µM | > 100 µM | 5.61 µM | > 100 µM | > 100 µM | > 100 µM | > 100 µM |
| CN1CC=C(OP(=O)(NCc2ccccc2)N(CCCl)CCCl)CC1 (stereo not drawn) | > 100 µM | > 100 µM | > 100 µM | > 100 µM | > 100 µM | > 100 µM | > 100 µM | > 100 µM | > 100 µM | > 100 µM | – |
| CCCCCCC(N)(CCCCCC)C(=O)Nn1c(C)ccc1C | > 100 µM | > 100 µM | > 100 µM | > 100 µM | > 100 µM | > 100 µM | > 100 µM | > 100 µM | > 100 µM | > 100 µM | – |
| O=C1/C(=C/c2cccc([N+](=O)[O-])c2)CCCc2ccccc21 | 21.6 µM | 25.8 µM | 28.6 µM | 17 µM | 27.6 µM | 30.2 µM | 29.9 µM | 16.5 µM | 23 µM | 34.2 µM | – |
| Cc1ccc2c(c1)C(C1Cc3c(C)cccc3C1=O)OC2=O (stereo not drawn) | > 100 µM | > 100 µM | > 100 µM | > 100 µM | > 100 µM | > 100 µM | > 100 µM | > 100 µM | > 100 µM | > 100 µM | – |
| N#Cc1c(-c2ccccc2)c(C#N)c(=O)n(NS(=O)(=O)c2ccccc2)c1O | > 100 µM | > 100 µM | > 100 µM | > 100 µM | > 100 µM | > 100 µM | > 100 µM | > 100 µM | > 100 µM | > 100 µM | – |
| CCOC(=O)CCc1c(C(=O)OCC)[nH]c(/C=C2/NC(=O)C(C)=C2CC)c1C | 25.7 µM | 47.7 µM | 30.2 µM | > 100 µM | > 100 µM | 25.3 µM | 42.7 µM | 23.9 µM | 15.3 µM | 48.3 µM | – |
| CC(=O)NNC=N/C(C#N)=C(\N)C#N | > 100 µM | > 100 µM | > 100 µM | > 100 µM | > 100 µM | > 100 µM | > 100 µM | > 100 µM | > 100 µM | > 100 µM | – |
| O=C(/C=C/c1ccc(O)c(O)c1)NC(CO)C(=O)O (stereo not drawn) | – | – | > 100 µM | > 100 µM | > 100 µM | > 100 µM | > 100 µM | > 100 µM | > 100 µM | > 100 µM | – |
| CC1=NC(=Cc2ccc(Cl)cc2)C(=O)N1n1c(-c2ccccc2)nc2ccccc2c1=O | 78.6 µM | > 100 µM | > 100 µM | > 100 µM | – | 75.5 µM | 99.6 µM | > 100 µM | > 100 µM | > 100 µM | – |
| Cc1ccc(S(=O)(=O)N(c2ccccc2F)C2CCCCC2O)cc1 (stereo not drawn) | > 100 µM | – | > 100 µM | > 100 µM | > 100 µM | 5.64 µM | 88.5 µM | > 100 µM | > 100 µM | > 100 µM | – |
| Oc1cn(-c2ccc(Cl)cc2)nc1-c1nnc(Nc2ccccc2)o1 | – | 32.4 µM | 34.9 µM | 41 µM | > 100 µM | 43.5 µM | 45.2 µM | 37.2 µM | 28 µM | 27.4 µM | – |
| CC(=O)c1c2c(cc3c1CC1(Cc4cc5c(cc4C1)CCC5)C3)CCC2 | > 100 µM | > 100 µM | > 100 µM | > 100 µM | > 100 µM | > 100 µM | > 100 µM | – | > 100 µM | > 100 µM | – |
